Measured values published in US12359203B2, “Combination vectors and methods for treating cancer” (American Gene Technologies International Inc., priority 2016, dated 2025).

Key:
PC3 tumors = assay: PC3 tumor growth in NOD/SCID mice, transduced cells with or without zoledronic acid; assay type: in vivo; settings: single dose of zoledronic acid
Procedure: Protocol overview for co-administration of LV-shRNA-FDPS (farnesyl diphosphate synthase) with or without zoledronic acid in mice implanted with human prostate cancer cell line PC3. Tumor cells were cultured in vitro, then transduced with lentivirus vector control with a scrambled sequence (nonfunctional) shRNA insert and an expression cassette for firefly luciferase, or LV-FDPS with a shRNA capable of reducing expression of FDPS mRNA and an expression cassette for firefly luciferase. The transduced tumor cells were implanted on the flank of immune deficient mice by subcutaneous injection. Once tumors reached approximately 200 mm^3 volume, all mice receive a single dose of zoledronic acid (100 micrograms per kilogram body weight, which is similar to a standard human dose) in saline. 7 days after zoledronic acid injection, an imaging study was repeated to measure volume and photon intensity of individual tumors.
Day—4: Material Preparation and Delivery. Prepare lenti-vector control and lenti-shRNA-FDPS transduced PC3 cells. • 1. […]
Effects of LV-shRNA-FDPS with or without zoledronic acid on PC3 tumor growth in NOD/SCID mice. […] A bioluminescence imaging study on Day 8 determined the average tumor sizes prior to zoledronic acid treatment (FIG. 10A). The photon intensity for tumors was measured with a CCD light capture system.

human CD47 = assay: CD47 mRNA expression in Hep3B cells (quantitative RT-PCR); assay type: cell-based; settings: 48 hours after transduction, mRNA normalized to actin, FIG. 7A
Procedure: Functional Assay: The effect of different CD47 shRNA targeting sequences on CD47 expression was determined by measuring mRNA expression. Hep3B hepatocellular carcinoma cells were transduced with a lentiviral vector containing CD47 shRNA sequences. After 48 hours, cells were lysed and RNA was extracted using the RNeasy mini kit from Qiagen. cDNA was then synthesized from RNA using SuperScript VILO from Invitrogen. The samples were then analyzed by quantitative RT-PCR using an Applied Biosystems StepOne PCR machine. CD47 expression was detected with SYBR Green from Invitrogen using the forward primer (5′-[…]-3′) (SEQ ID NO: 63) and reverse primer (5′-GCCTCTTGACATTCTCCTC-3′) (SEQ ID NO: 64). The samples were normalized by measuring actin expression using the forward primer (5′-AGCGCGGCTACAGCTTCA-3′) (SEQ ID NO: 61) and reverse primer (5′-[…]-3′) (SEQ ID NO: 65). The relative expression of CD47 was determined by its Ct value normalized to the level of actin for each sample.

human FDPS = assay: Functional assay for FDPS mRNA reduction (quantitative RT-PCR); assay type: cell-based; settings: HepG2 cells, 48 hours after transduction, mRNA normalized to actin; FIG. 4A
Procedure: (§1) Vector Construction: For FDPS shRNA, oligonucleotide sequences containing BamHI and EcoRI restriction sites were synthesized by MWG operon. Oligonucleotide sequences were annealed by incubation at 70 degrees Celsius and cooling to room temperature. Annealed oligonucleotides were digested with the restriction enzymes BamHI and EcoRI for one hour at 37 degrees Celsius and then the enzymes were heat-inactivated at 70 degrees Celsius for 20 minutes. In parallel, the lentiviral vector was digested with the restriction enzymes BamHI and EcoRI for one hour at 37 degrees Celsius. […] The DNA concentration was determined and the vector to oligo sequence was ligated in the ratio 3:1 insert to vector. […] Cells were collected after 2-4 days and protein and RNA was analyzed for FDPS expression.
Functional Assay for mRNA Reduction: The effect of different FDPS short homology RNA (shRNA) targeting sequences on FDPS expression was determined by measuring mRNA expression. […] The samples were then analyzed by quantitative RT-PCR using an Applied Biosystems StepOne PCR machine. FDPS expression was detected with SYBR Green from Invitrogen using the forward primer (5′-[…]-3′) (SEQ ID NO: 59) and reverse primer (5′-[…]-3′) (SEQ ID NO: 60) with standard conditions for polymerase chain reaction analysis. […] The relative expression of FDPS was determined by its Ct value normalized to the level of actin for each sample.

FDPS = FDPS immunoblot in HepG2 cells infected with lentiviral vectors; assay type: cell-based, human; settings: 48 hours, FIG. 4B
Procedure: HepG2 human hepatocellular carcinoma cells were infected with lentiviral vectors containing either the H1 promoter and a FDPS shRNA (SEQ ID NO: 4) sequence or the EF-1alpha promoter and the following miR30-based FDPS sequences:
After 48 hours, cells were lysed and an immunoblot was performed using an anti-FDPS (Thermo Scientific) and an anti-actin (Sigma) antibody for a protein loading control. […] Treatment with the miR30-based FDPS sequences decreased FDPS expression.

human cMyc = assay: cMyc mRNA expression in HepG2 cells (quantitative PCR); assay type: cell-based; settings: 48 hours after transduction, mRNA normalized to actin, FIG. 8A
Procedure: as §1, with “cMyc” for “FDPS”
Functional Assay: The effect of different cMyc shRNA targeting sequences on cMyc expression was determined by measuring mRNA expression. […] The samples were then analyzed by quantitative PCR using an Applied Biosystems StepOne PCR machine. cMyc expression was detected with SYBR Green from Invitrogen using the forward primer (5′-GGACTATCCTGCTGCCAA-3′) (SEQ ID NO: 69) and reverse primer (5′-GCCTCTTGACATTCTCCTC-3′) (SEQ ID NO: 64). […] The relative expression of cMyc was determined by its Ct value normalized to the level of actin for each sample.

cMyc = cMyc immunoblot in SNU449 cells infected with lentiviral vectors; assay type: cell-based, human; settings: 48 hours, FIG. 8B
Procedure: After 48 hours, cells were lysed and an immunoblot was performed using an anti-cMyc (Santa Cruz) and an anti-actin (Sigma) antibody for a protein loading control.

Molecule: O=P(O)(O)C(O)(Cn1ccnc1)P(=O)(O)O [zoledronic acid]
- toxicity in mice (PC3 tumors): not toxic

Molecule: CD47 sequence 1: CD47 shRNA, SEQ ID NO: 5 (DNA GGTGAAACGATCATCGAGCCTCGAGGCTCGATGATCGTTTCACCTTTTT)
- relative expression level of human CD47 (human CD47): most significant inhibition

Molecule: CD47 sequence 3: CD47 shRNA, SEQ ID NO: 7 (DNA CCTCCTTCGTCATTGCCATCTCGAGATGGCAATGACGAAGGAGGTTTTT)
- relative expression level of human CD47 (human CD47): most significant inhibition

Molecule: FDPS-2: FDPS shRNA, SEQ ID NO: 2 (DNA GCAGGATTTCGTTCAGCACTTCTCGAGAAGTGCTGAACGAAATCCTGCTTTTT)
- relative expression level of human FDPS (human FDPS): most significant inhibition

Molecule: FDPS-4: FDPS shRNA, SEQ ID NO: 4; used with H1 promoter in FIG. 4B (DNA GCAGAAGGAGGCTGAGAAAGTCTCGAGACTTTCTCAGCCTCCTTCTGCTTTTT)
- relative expression level of human FDPS (human FDPS): most significant inhibition
- FDPS protein expression (FDPS): significantly decreased

Molecule: cMyc shRNA Sequence 2: cMyc shRNA, SEQ ID NO: 11 (DNA GCGAACACACAACGTCTTGGACTCGAGTCCAAGACGTTGTGTGTTCGCTTTT)
- relative expression level of human cMyc (human cMyc): most significant inhibition

Molecule: cMyc shRNA Sequence 4: cMyc shRNA, SEQ ID NO: 13; used in FIG. 8B (GAGAATGTCAAGAGGCGAACACTCGAGTGTTCGCCTCTTGACATTCTCTTTTT)
- cMyc protein expression (cMyc): significantly decreased
